The values below are quoted from earlier work in patent US10646464B2, “Methods for treating cancer” (Boston Biomedical, Inc., priority 2017, dated 2020).

Usually pIC50 stands for the IC50 on a negative log10 scale, so that one unit is a factor of ten.

For data set [1], the system named is patients with advanced, previously treated pancreatic adenocarcinoma. The following applies: weekly paclitaxel alone, previously reported.
Data set [2] relates to Stat3 pathway. The conditions noted are these: read-out: inhibits Stat3 pathway activity, cellular IC50.

Molecules are shown by their SMILES. pIC50: −log10 of the molar value.

As to `CC(=O)O[C@H]1C(=O)[C@@]2(C)[C@H]([C@H](OC(=O)c3ccccc3)[C@]3(O)C[C@H](OC(=O)[C@H](O)[C@@H](NC(=O)c4ccccc4)c4ccccc4)C(C)=C1C3(C)C)[C@]1(OC(C)=O)CO[C@@H]1C[C@@H]2O` [paclitaxel], the “median overall survival (mOS)” value in data set [1] is given as “about 17.5 weeks”. On to `CC(=O)c1cc2c(o1)C(=O)c1ccccc1C2=O` [2-acetylnaphtho[2,3-b]furan-4,9-dione], for which, in data set [2], the pIC50 is about 6.60.
